From patent US20260258086A1 (priority 2021, published 2026)
Where two headings read alike, the source gives them in different places. Numbered stars: 1 amine (or outer) side, 2 acyl side, 3 side chain; on linkers, the order of the positions; unused ones are H or OH. Bridge positions count the residues as written; N and C are the ends. Square brackets hold non-standard residues; d marks the D form. Peptide text beside a SMILES is read from it. X4 = O=C([C@@H](Cc1c([*:3])[nH]c2ccc(O)cc12)N[*:1])[*:2]; X2 = O=C([C@@H](Cc1c([*:3])[nH]c2ccccc12)N[*:1])[*:2]; Ile(4R-OH,5-OH) = C[C@H]([C@H](N)C(=O)O)[C@@H](O)CO; X5 = C[C@@H](S[*:3])[C@H](N[*:1])C(=O)[*:2]; X1 = C[C@H](S[*:3])[C@H](N[*:1])C(=O)[*:2]; X3 = CS[C@H](C)[C@H](N[*:1])C(=O)[*:2]; Gly(cPent) = N[C@H](C(=O)O)C1CCCC1; Nva(3-Et) = CCC(CC)[C@H](N)C(=O)O; Hyp = O=C(O)[C@@H]1C[C@@H](O)CN1; Pen = CC(C)(S)[C@H](N)C(=O)O

What was measured:
Pol II = Pol II (Homo sapiens, UniProt P24928); test: biochemical; assay type: biochemical
white mice = conditions: mouse, in vivo; cited from earlier work
calf thymus RNAP II = calf thymus RNAP II (Bos taurus, UniProt G3MZY8); conditions: cited from earlier work
SK-BR-3 cells = assay type: cell-based; conditions: read-out: IC50, cell viability on SK-BR-3 cells

**Q.** Which results are given for `CCC(CC)[C@@H]1NC(=O)CNC(=O)[C@H]2Cc3c([nH]c4ccccc34)SC[C@H](NC(=O)CNC1=O)C(=O)N[C@@H](CC(N)=O)C(=O)N1C[C@H](O)C[C@H]1C(=O)N[C@@H]([C@@H](C)[C@@H](O)CO)C(=O)N2` [Compound I(vii), Diethylala^6-Dideoxyamanitin] (cyclo(CN[Hyp][Ile(4R-OH,5-OH)][X2]G[Nva(3-Et)]G); thioether 1-5)?
**A.** IC50 (CHO cells): 380 ± 110 nM; IC50 (HEK293 cells): 170 ± 30 nM

**Q.** Which IC50 (CHO cells) does the source give for `CC[C@H](C)[C@@H]1NC(=O)CNC(=O)[C@H]2Cc3c([nH]c4ccccc34)SC(C)(C)[C@H](NC(=O)CNC1=O)C(=O)N[C@@H](CC(N)=O)C(=O)N1C[C@H](O)C[C@H]1C(=O)N[C@@H]([C@@H](C)[C@@H](O)CO)C(=O)N2` [Compound I(iii), Pen^8-Dideoxyamanitin] (cyclo(GIG[Pen]N[Hyp][Ile(4R-OH,5-OH)][X2]); thioether 4-8) here?
**A.** 2700 ± 590 nM

**Q.** What about the “cytotoxicity compared with α-amanitin, in words” value (CHO cells) of the same compound?
**A.** intermediately toxic

**Q.** Which results are given for `CS[C@H](C)[C@@H]1NC(=O)CNC(=O)[C@H]2Cc3c([nH]c4ccccc34)SC[C@H](NC(=O)CNC1=O)C(=O)N[C@@H](CC(N)=O)C(=O)N1C[C@H](O)C[C@H]1C(=O)N[C@@H]([C@@H](C)[C@@H](O)CO)C(=O)N2` [Compound I(v), Thia-Ile^6-Dideoxyamanitin] (cyclo(CN[Hyp][Ile(4R-OH,5-OH)][X2]G[X3]G); thioether 1-5)?
**A.** IC50 (CHO cells): 4400 ± 730 nM; IC50 (HeLa cells): 16 ± 2.3 µM; Pol II / transcription inhibition, in words (Pol II): high Pol II inhibition; IC50 (HepG2 cells): > 20 µM; IC50 (HEK293 cells): 830 ± 150 nM

**Q.** For `CC[C@H](C)[C@@H]1NC(=O)CNC(=O)[C@@H]2Cc3c([nH]c4ccccc34)[S+]([O-])C[C@H](NC(=O)CNC1=O)C(=O)N[C@@H](CC(N)=O)C(=O)N1C[C@H](O)C[C@H]1C(=O)N[C@@H]([C@@H](C)[C@@H](O)CO)C(=O)N2` (stereo partly shown) [amaninamide], which LD50 (white mice) is on record?
**A.** 20 mg/kg

**Q.** And the Ki (calf thymus RNAP II)?
**A.** 5 nM

**Q.** What does the source list for `CC[C@H](C)[C@@H]1NC(=O)CNC(=O)[C@@H]2Cc3c([nH]c4ccccc34)[S+]([O-])C[C@H](NC(=O)CNC1=O)C(=O)N[C@@H](CC(=O)O)C(=O)N1C[C@H](O)C[C@H]1C(=O)N[C@@H]([C@@H](C)[C@@H](O)CO)C(=O)N2` (stereo partly shown) [amanin]?
**A.** LD50 (white mice): 0.3 mg/kg; Ki (calf thymus RNAP II): 5 nM

**Q.** Which LD50 (white mice) does the source give for ε-amanitin here?
**A.** 0.3 to 0.6 mg/kg

**Q.** What does the source list for `CC[C@H](C)[C@@H]1NC(=O)CNC(=O)[C@@H]2Cc3c([nH]c4cc(O)ccc34)[S+]([O-])C[C@H](NC(=O)CNC1=O)C(=O)N[C@@H](CC(N)=O)C(=O)N1C[C@H](O)C[C@H]1C(=O)N[C@@H]([C@@H](C)CC)C(=O)N2` (stereo partly shown) [amanullin]?
**A.** LD50 (white mice): >20 mg/kg; Ki (calf thymus RNAP II): 10 nM

**Q.** Which results are given for `CO[C@H](C)[C@@H]1NC(=O)CNC(=O)[C@H]2Cc3c([nH]c4ccccc34)SC[C@H](NC(=O)CNC1=O)C(=O)N[C@@H](CC(N)=O)C(=O)N1C[C@H](O)C[C@H]1C(=O)N[C@@H]([C@@H](C)[C@@H](O)CO)C(=O)N2` [Compound I(vi), Oxo-Ile^6-Dideoxyamanitin] (cyclo(CN[Hyp][Ile(4R-OH,5-OH)][X2]GT(Me)G); thioether 1-5)?
**A.** IC50 (CHO cells): > 15000 nM; cytotoxicity compared with α-amanitin, in words (CHO cells): no observable cytotoxicity

**Q.** Which IC50 (CHO cells) does the source give for `C[C@H]([C@@H]1NC(=O)[C@@H]2C[C@@H](O)CN2C(=O)[C@H](CC(N)=O)NC(=O)[C@@H]2CSc3[nH]c4ccccc4c3C[C@@H](NC1=O)C(=O)NCC(=O)N[C@@H](C1CCCC1)C(=O)NCC(=O)N2)[C@@H](O)CO` [Compound I(viii), Cyclopentylgly^6-Dideoxyamanitin] (cyclo(CN[Hyp][Ile(4R-OH,5-OH)][X2]G[Gly(cPent)]G); thioether 1-5) here?
**A.** 1700 ± 270 nM

**Q.** What about the “cytotoxicity compared with α-amanitin, in words” value (CHO cells) of the same compound?
**A.** considerably diminished toxicity

**Q.** Which IC50 (CHO cells) does the source give for `CCC(CC)[C@@H]1NC(=O)CNC(=O)[C@H]2Cc3c([nH]c4ccc(O)cc34)SC[C@H](NC(=O)CNC1=O)C(=O)N[C@@H](CC(N)=O)C(=O)N1C[C@H](O)C[C@H]1C(=O)N[C@@H]([C@@H](C)[C@@H](O)CO)C(=O)N2` [Compound I(xi), 5-OH Trp^4, Diethylala^6-Deoxyamanitin] (cyclo(CN[Hyp][Ile(4R-OH,5-OH)][X4]G[Nva(3-Et)]G); thioether 1-5) here?
**A.** 1200 ± 330 nM

**Q.** What about the IC50 (HEK293 cells) of the same compound?
**A.** 80 ± 10 nM

**Q.** Which IC50 (SK-BR-3 cells) does the source give for Herceptin here?
**A.** > 1000 nM

**Q.** For `CC[C@H](C)[C@@H]1NC(=O)CNC(=O)[C@H]2Cc3c([nH]c4ccccc34)S[C@@H](C)[C@H](NC(=O)CNC1=O)C(=O)N[C@@H](CC(N)=O)C(=O)N1C[C@H](O)C[C@H]1C(=O)N[C@@H]([C@@H](C)[C@@H](O)CO)C(=O)N2` [Compound I(i), (2R,3S)-β-Methyl-Cys^8-Dideoxyamanitin] (cyclo(GIG[X1]N[Hyp][Ile(4R-OH,5-OH)][X2]); thioether 4-8), which IC50 (CHO cells) is on record?
**A.** 610 ± 170 nM

**Q.** And the IC50 (HEK293 cells)?
**A.** 240 ± 50 nM

**Q.** For `CC[C@H](C)[C@@H]1NC(=O)CNC(=O)[C@@H]2Cc3c([nH]c4cc(O)ccc34)[S+]([O-])C[C@H](NC(=O)CNC1=O)C(=O)N[C@@H](CC(=O)O)C(=O)N1CCC[C@H]1C(=O)N[C@@H]([C@@H](C)CC)C(=O)N2` (stereo partly shown) [proamanullin], which LD50 (white mice) is on record?
**A.** >20 mg/kg

**Q.** Which IC50 (CHO cells) does the source give for `CCC(CC)[C@@H]1NC(=O)CNC(=O)[C@H]2Cc3c([nH]c4ccc(O)cc34)S[C@@H](C)[C@H](NC(=O)CNC1=O)C(=O)N[C@@H](CC(N)=O)C(=O)N1C[C@H](O)C[C@H]1C(=O)N[C@@H]([C@@H](C)[C@@H](O)CO)C(=O)N2` [Compound I(xiii), 5-OH Trp^4, Diethylala^6, (2R,3S)-β-Methyl-Cys^8-Deoxyamanitin] (cyclo(G[Nva(3-Et)]G[X1]N[Hyp][Ile(4R-OH,5-OH)][X4]); thioether 4-8) here?
**A.** 1170 ± 370 nM

**Q.** What about the IC50 (HEK293 cells) of the same compound?
**A.** 240 ± 50 nM

**Q.** For `CC[C@H](C)[C@@H]1NC(=O)CNC(=O)[C@H]2Cc3c([nH]c4ccccc34)SC[C@H](NC(=O)CNC1=O)C(=O)N[C@@H](CC(N)=O)C(=O)N1C[C@H](O)C[C@H]1C(=O)N[C@@H]([C@@H](C)[C@@H](O)CO)C(=O)N2` [Compound I(ix), aza-Gly^5-Dideoxyamanitin] (cyclo(CN[Hyp][Ile(4R-OH,5-OH)][X2]GIG); thioether 1-5), which IC50 (CHO cells) is on record?
**A.** 1900 ± 520 nM

**Q.** And the “cytotoxicity compared with α-amanitin, in words” value (CHO cells)?
**A.** only a two-fold reduction in cytotoxicity

**Q.** What about the IC50 (HEK293 cells) of the same compound?
**A.** 210 ± 50 nM

**Q.** With β-amanitin as the compound, how does the LD50 (white mice) read?
**A.** 0.5 mg/kg

**Q.** What about the Ki (calf thymus RNAP II; read-out: Ki) of the same compound?
**A.** 2.5 nM

**Q.** For `CC[C@H](C)[C@@H]1NC(=O)CNC(=O)[C@H]2Cc3c([nH]c4ccccc34)SC[C@H](NC(=O)CNC1=O)C(=O)N[C@@H](CC(N)=O)C(=O)N1C[C@H](O)C[C@H]1C(=O)N[C@@H]([C@@H](C)[C@@H](O)CO)C(=O)N2` [Compound I(iv), aza-Gly^7-Dideoxyamanitin] (cyclo(CN[Hyp][Ile(4R-OH,5-OH)][X2]GIG); thioether 1-5), which IC50 (CHO cells) is on record?
**A.** 170 ± 30 nM

**Q.** What about the IC50 (HeLa cells) of the same compound?
**A.** 3.3 ± 0.39 µM

**Q.** And the “cytotoxicity, in words” value (HeLa cells)?
**A.** increased cytotoxicity

**Q.** And the IC50 (HepG2 cells)?
**A.** 5.6 ± 0.78 µM

**Q.** What about the IC50 (HEK293 cells) of the same compound?
**A.** 260 ± 70 nM

**Q.** And the “cytotoxicity, in words” value (HEK293 cells)?
**A.** increased cytotoxicity

**Q.** With amanullinic acid as the compound, how does the LD50 (white mice) read?
**A.** >20 mg/kg

**Q.** For `CC[C@H](C)[C@@H]1NC(=O)CNC(=O)[C@H]2Cc3c([nH]c4ccccc34)S[C@H](C)[C@H](NC(=O)CNC1=O)C(=O)N[C@@H](CC(N)=O)C(=O)N1C[C@H](O)C[C@H]1C(=O)N[C@@H]([C@@H](C)[C@@H](O)CO)C(=O)N2` [Compound I(ii), (2R,3R)-β-Methyl-Cys^8-Dideoxyamanitin] (cyclo(GIG[X5]N[Hyp][Ile(4R-OH,5-OH)][X2]); thioether 4-8), which IC50 (CHO cells) is on record?
**A.** > 15000 nM

**Q.** And the Ki (Pol II)?
**A.** > 1000 nM

**Q.** With γ-amanitin as the compound, how does the LD50 (white mice) read?
**A.** 0.2 mg/kg

**Q.** And the Ki (calf thymus RNAP II; read-out: Ki)?
**A.** 5 nM

**Q.** For `CCC(CC)[C@@H]1NC(=O)CNC(=O)[C@H]2Cc3c([nH]c4ccccc34)S[C@@H](C)[C@H](NC(=O)CNC1=O)C(=O)N[C@@H](CC(N)=O)C(=O)N1C[C@H](O)C[C@H]1C(=O)N[C@@H]([C@@H](C)[C@@H](O)CO)C(=O)N2` [Compound I(xii), Diethylala^6, (2R,3S)-β-Methyl-Cys^8-Dideoxyamanitin] (cyclo(G[Nva(3-Et)]G[X1]N[Hyp][Ile(4R-OH,5-OH)][X2]); thioether 4-8), which IC50 (CHO cells) is on record?
**A.** 290 ± 70 nM

**Q.** And the “toxicity relative to α-amanitin (times / -fold as toxic)” value (CHO cells)?
**A.** 2

**Q.** And the IC50 (HeLa cells)?
**A.** 2.4 ± 0.3 µM

**Q.** What about the “cytotoxicity, in words” value (HeLa cells) of the same compound?
**A.** increased cytotoxicity

**Q.** What about the IC50 (HepG2 cells) of the same compound?
**A.** 5.7 ± 1.1 µM

**Q.** What about the IC50 (HEK293 cells) of the same compound?
**A.** 110 ± 30 nM

**Q.** And the “cytotoxicity, in words” value (HEK293 cells)?
**A.** increased cytotoxicity

**Q.** And the “toxicity relative to α-amanitin (times / -fold as toxic)” value (HEK293 cells)?
**A.** 5
